Assay results published in patent US11925672B2, “Peptide having antioxidant activity and composition containing same” (SEMPIO FOODS COMPANY, priority 2018, dated 2024).
“Also recorded” adds a separate entry of the source. Numbered stars: 1 amine (or outer) side, 2 acyl side, 3 side chain; on linkers, the order of the positions; unused ones are H or OH. Square brackets hold non-standard residues; d marks the D form. Ends that are not written are not given here. γGlu = O=C(O)[C@H](CCC(=O)[*:2])N[*:1]; Orn = NCCC[C@H](N)C(=O)O

Key:
[1] = system: SOD2 mRNA; experiment: SOD2 mRNA expression level by real-time PCR in Tert-BHP-treated HEK293 cells; type: cell-based; details: Tert-BHP 300 μM, peptide 500 μM, 18 hours; for effect on SOD2 mRNA expression: FIG. 6; for SOD2 mRNA expression compared to positive control GSH: vs GSH
Description: The expression of SOD2 mRNA as another antioxidant factor was determined. The cell line culture, RNA extraction, cDNA synthesis and PCR experiments were performed in the same manner as in Experimental Example 5 above. A detailed description thereof is given below.
(§1) An HEK293 cell (kidney cell) line was seeded at a density of 6.6×10^5/well in DMEM (Dulbecco's Modified Eagle's Medium) medium on a 6-well plate and cultured at 37° C. and 5% CO2 for 24 hours. The next day, the medium was exchanged with serum and amino-acid-free media, and then the cells were further cultured for 20 hours or longer. The cells were treated with Tert-BHP (300 μM) and 500 μM 100 types of peptides, and then cultured for 18 hours.
RNA was extracted from the cells treated with 100 types of peptides in (1) using TRIzol (Thermo Fisher Scientific). A GoScript™ Reverse Transcription System (Promega, Wisconsin, USA) was used to synthesize cDNA from the RNA. The cDNA was synthesized by performing annealing with 1 μg RNA, 0.5 μg of an oligo dt primer, 0.5 μg of a random primer, and RT-PCR pre-mixture at 25° C. for 5 minutes, extension at 42° C. for 60 minutes, and inactivation at 70° C. for 15 minutes.
(§2) PCR was performed using Maxime™ PCR PreMix (i-StarTaq) (Intron Biotechnology, Korea). Real-time PCR was performed using SsoAdvanced™ Universal SYBR® Green Supermix (Bio-Rad, USA). 100 ng of cDNA, 2 μM (pmol/μl) primers, 10 μl of 2X SsoAdvanced™ Universal SYBR® Green Supermix and DW were added to the PCR plate well. Then, the temperature was cyclically adjusted to 95° C. for 3 minutes, 95° C. for 10 seconds and 58° C. for 40 seconds for a total of 40 cycles. A PCR reaction was performed using the CFX96 Touch™ Real-Time PCR Detection System (Bio-Rad, California, USA), and fluorescence intensity was measured at the end of each cycle.

[2] = DPPH-scavenging ability assay; type: biochemical; details: peptides; vs GSH
Description: 2. DPPH (2,2-Diphenyl-1-Picryl-Hydrazyl-Hydrate) Assay Method
The antioxidant activity due to the DPPH-scavenging ability of yeast hydrolyzates was measured using the methods of Choi Chang-seop et al. (2003) and Shekhar et al. (2014). 20 μl of a sample (1 to 5000 μg/ml) dissolved in distilled water was added to 180 μl of an ethanol solution containing DPPH (0.111 mM). The resulting mixture was allowed to react at 25° C. for 30 minutes, and absorbance was measured at 517 nm. Ascorbic acid was used to create the standard curve, and DPPH-scavenging ability (%) was calculated and expressed by the equation of [(absorbance upon no addition of sample−absorbance of sample)/absorbance upon no addition of sample]×100.
(§3) The DPPH-scavenging ability and reducing power of the fractions of respective yeast hydrolyzates (Preparation Examples 1 to 4) were measured using the same method of measuring DPPH-scavenging ability and reducing power as in Experimental Example 1.

[3] = Reducing power assay (method of Oyaizu); details: peptides; vs GSH
Description: 3. Reducing Power Assay Method
The reducing power of yeast hydrolysates was measured using the method of Oyaizu (1986). Specifically, a sample (1-5000 μg/ml, 60 μl) dissolved in distilled water was mixed with phosphate buffer (150 μl, 0.2M, pH 6.6) and potassium ferricyanide (K 3 Fe(CN) 6, 150 μl, 1%), followed by reacting at 50° C. for 20 minutes. Further, 150 μl of trichloroacetic acid (10%) was added thereto, followed by centrifugation at 2,000 g for 10 minutes. 150 μl of the supernatant containing the sample was added to 150 μl of DW and FeCl3 (30 μl, 0.1%). The resulting mixture was allowed to react at 25° C. for 10 minutes, and absorbance was measured at 700 nm.
as §3

[4] = system: Nrf2 mRNA; experiment: Nrf2 mRNA expression level by real-time PCR in Tert-BHP-treated HEK293 cells; type: cell-based; details: Tert-BHP 300 μM, peptide 500 μM, 18 hours; for effect on expression of Nrf2 mRNA: FIGS. 5A to 5C; for Nrf2 mRNA expression compared to positive control GSH: vs GSH
Description: In the present invention, the antioxidant activity was compared between the 100 types of peptides, and the change in Nrf2 mRNA expression was measured through PCR in order to select the final peptide.
as §1, with “C. under” for “C. and”
RNA was extracted from the cells treated with 100 types of peptides in (1) using TRIzol (Thermo Fisher Scientific). A GoScript™ Reverse Transcription System (Promega, Wisconsin, USA) was used to synthesize cDNA from the RNA. The cDNA was synthesized by performing annealing using 1 μg of RNA, 0.5 μg of an oligo dt primer, 0.5 μg of a random primer and RT-PCR pre-mixture at 25° C. for 5 minutes, extension at 42° C. for 60 minutes, and inactivation at 70° C. for 15 minutes.
as §2, with “using a” for “using the”

Substance | effect on SOD2 mRNA expression [1] | SOD2 mRNA expression compared to positive control GSH [1] | DPPH-scavenging ability of peptide compared to GSH [2] | reducing power of peptide compared to GSH [3] | effect on expression of Nrf2 mRNA [4] | Nrf2 mRNA expression compared to positive control GSH [4]
γ-GLU-GLN-GLU ([γGlu]-Gln-Glu) | increased SOD2 mRNA expression | remarkably excellent; also recorded: statistically significant activity | comparable or superior to GSH | comparable or superior to GSH | improve the expression of Nrf2 mRNA | remarkably excellent effect; also recorded: statistically significant activity; also recorded: comparable or superior to GSH
γ-GLU-THR-GLY ([γGlu]-Thr-Gly; also: gamma-glutamyl isopeptide bond (Glu side chain to Thr)) | increased SOD2 mRNA expression | remarkably excellent; also recorded: statistically significant activity | comparable or superior to GSH | comparable or superior to GSH | improve the expression of Nrf2 mRNA | remarkably excellent effect; also recorded: statistically significant activity; also recorded: comparable or superior to GSH
γ-GLU-VAL-CYS ([γGlu]-Val-Cys; also: gamma-glutamyl isopeptide bond (Glu side chain to Val)) | increased SOD2 mRNA expression | remarkably excellent; also recorded: statistically significant activity | comparable or superior to GSH | comparable or superior to GSH | improve the expression of Nrf2 mRNA | remarkably excellent effect; also recorded: statistically significant activity; also recorded: comparable or superior to GSH
γ-GLU-VAL-GLU ([γGlu]-Val-Glu; also: gamma-glutamyl isopeptide bond (Glu side chain to Val)) | increased SOD2 mRNA expression | remarkably excellent; also recorded: statistically significant activity |  |  | improve the expression of Nrf2 mRNA | remarkably excellent effect; also recorded: statistically significant activity
γ-GLU-VAL-GLY ([γGlu]-Val-Gly; also: gamma-glutamyl isopeptide bond (Glu side chain to Val)) | increased SOD2 mRNA expression | remarkably excellent |  |  | improve the expression of Nrf2 mRNA | 
γ-GLU-VAL-HIS ([γGlu]-Val-His; also: gamma-glutamyl isopeptide bond (Glu side chain to Val)) | increased SOD2 mRNA expression | remarkably excellent |  |  | improve the expression of Nrf2 mRNA | 
γ-GLU-VAL-LYS ([γGlu]-Val-Lys; also: gamma-glutamyl isopeptide bond (Glu side chain to Val)) | increased SOD2 mRNA expression |  |  |  | improve the expression of Nrf2 mRNA | 
γ-GLU-VAL-MET ([γGlu]-Val-Met; also: gamma-glutamyl isopeptide bond (Glu side chain to Val)) | increased SOD2 mRNA expression | remarkably excellent; also recorded: statistically significant activity |  |  | improve the expression of Nrf2 mRNA | remarkably excellent effect; also recorded: statistically significant activity
γ-GLU-VAL-ORN ([γGlu]-Val-[Orn]; also: γ-peptide bond from Glu side chain carboxyl to Val) | increased SOD2 mRNA expression |  |  |  | improve the expression of Nrf2 mRNA | 
γ-GLU-VAL-PHE ([γGlu]-Val-Phe; also: gamma-glutamyl isopeptide bond (Glu side chain to Val)) | increased SOD2 mRNA expression | remarkably excellent; also recorded: statistically significant activity |  |  | improve the expression of Nrf2 mRNA | remarkably excellent effect; also recorded: statistically significant activity
γ-GLU-VAL-PRO ([γGlu]-Val-Pro; also: gamma-glutamyl isopeptide bond (Glu side chain to Val)) | increased SOD2 mRNA expression |  |  |  | improve the expression of Nrf2 mRNA | 
γ-GLU-VAL-VAL ([γGlu]-Val-Val; also: gamma-glutamyl isopeptide bond (Glu side chain to Val)) | increased SOD2 mRNA expression |  |  |  | improve the expression of Nrf2 mRNA | 
